Measured values from patent US11351271B2, “RNA-based logic circuits with RNA binding proteins, aptamers and small molecules” (priority 2014, dated 2022).

Assays:
[1] = system: DDe (human estrogen receptor ligand binding domain) fused to Fluc2; conditions: C2C12
DDd-L7Ae [2] = test: DDd-L7Ae OFF switch on replicon in myotubes differentiated from C2C12; type: cell-based
DDd-L7Ae [3] = system: DDd-L7Ae

SMILES: CC/C(=C(\c1ccc(O)cc1)c1ccc(OCCN(C)C)cc1)c1ccccc1 [4-OHT, 4-hydroxytamoxifin]
- Increase of DDe-Fluc2 expression compared to no small molecule [1]: 6.4 fold

SMILES: COc1cc(Cc2cnc(N)nc2N)cc(OC)c1OC [TMP, trimethoprim]
- Decrease in expression after addition of TMP (DDd-L7Ae [2]; mouse myotubes, optimized circuit with PKR inhibitors): 15 fold
- Repression of reporter upon addition of TMP (DDd-L7Ae [3]): 22.5 fold

SMILES: O=C1Nc2ccc3ncsc3c2/C1=C/c1cnc[nH]1 [C16]
- Effect on expression and fold change of the DDd-L7Ae circuit (DDd-L7Ae [2]; myotubes): increase expression and overall fold change
